{
  "source": "patent US12194039B2",
  "about": "“Methods of treating heart failure by administering omecamtiv mecarbil” (Cytokinetics, Inc., priority 2020, dated 2025)",
  "key": {"MATE1": {"biological_target": "T1, MATE1 (Homo sapiens, UniProt Q96FL8)", "T1 sequence (Q96FL8 1-570)": "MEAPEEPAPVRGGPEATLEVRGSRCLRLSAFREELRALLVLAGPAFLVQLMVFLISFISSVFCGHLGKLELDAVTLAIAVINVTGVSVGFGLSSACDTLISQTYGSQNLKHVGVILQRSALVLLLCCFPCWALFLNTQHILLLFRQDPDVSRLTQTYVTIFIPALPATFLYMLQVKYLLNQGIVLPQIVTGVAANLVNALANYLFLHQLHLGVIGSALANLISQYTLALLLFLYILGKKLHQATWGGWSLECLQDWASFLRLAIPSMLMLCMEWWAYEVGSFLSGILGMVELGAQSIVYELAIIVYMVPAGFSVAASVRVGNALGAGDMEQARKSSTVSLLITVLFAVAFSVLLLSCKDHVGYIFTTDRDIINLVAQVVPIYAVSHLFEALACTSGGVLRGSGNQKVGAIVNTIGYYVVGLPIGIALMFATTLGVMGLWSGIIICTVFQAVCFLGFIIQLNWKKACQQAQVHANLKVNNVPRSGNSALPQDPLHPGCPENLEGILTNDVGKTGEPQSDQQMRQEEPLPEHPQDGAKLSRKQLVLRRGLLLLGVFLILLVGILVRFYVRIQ", "assay": "In vitro inhibition by OM", "assay_type": "in vitro ADME", "details": "result in words"}, "MATE 2-K": {"biological_target": "MATE 2-K (Homo sapiens, UniProt Q86VL8)", "sequence (Q86VL8 1-566 isoform Q86VL8-3)": "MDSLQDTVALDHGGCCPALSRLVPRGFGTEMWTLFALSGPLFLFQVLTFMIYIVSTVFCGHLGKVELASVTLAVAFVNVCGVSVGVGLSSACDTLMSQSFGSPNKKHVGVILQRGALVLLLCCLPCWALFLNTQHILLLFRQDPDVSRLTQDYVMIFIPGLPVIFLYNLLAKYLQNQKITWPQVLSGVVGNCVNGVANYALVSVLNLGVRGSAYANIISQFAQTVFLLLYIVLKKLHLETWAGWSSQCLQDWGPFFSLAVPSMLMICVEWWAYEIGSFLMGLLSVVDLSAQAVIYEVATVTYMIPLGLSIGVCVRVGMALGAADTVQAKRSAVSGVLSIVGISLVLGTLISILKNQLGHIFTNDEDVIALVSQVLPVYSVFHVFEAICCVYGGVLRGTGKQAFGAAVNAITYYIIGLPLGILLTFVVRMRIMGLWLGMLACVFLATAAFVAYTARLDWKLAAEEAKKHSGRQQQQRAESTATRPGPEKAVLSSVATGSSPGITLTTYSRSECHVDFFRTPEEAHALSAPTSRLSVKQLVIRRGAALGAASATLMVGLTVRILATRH", "assay": "In vitro inhibition by OM", "assay_type": "in vitro ADME", "details": "result in words"}, "patients with HFrEF": {"system": "patients with HFrEF", "details": "result in words, cited from earlier work"}, "[1]": {"system": "patients with heart failure and reduced ejection fraction", "assay_type": "in vivo", "experimental": "The study was event-driven and was ended after approximately 1590 cardiovascular deaths. The overall type I error was 0.05 for 2-sided testing across primary and secondary endpoints with control for multiplicity testing. A single interim efficacy analysis was conducted after approximately two-thirds of the targeted number of cardiovascular deaths accrued with a one-sided alpha of 0.0005. Given the negligible impact of this interim on the final alpha, the full 0.05 was used in the final analysis consistent with the Haybittle-Peto approach. […] The mean differences in the KCCQ TSS change from baseline to Week 24 were estimated using a mixed model stratified by randomization setting (inpatient and outpatient) containing baseline TSS value, region, baseline eGFR, scheduled visit, treatment group, and the interaction of treatment group with scheduled visit. A joint omnibus F-test was used to test the treatment effect for the KCCQ TSS. An overall pooled estimate for the KCCQ TSS treatment difference to placebo were conducted using a likelihood based approach. The prespecified safety analyses included: serious adverse events; adverse events associated with discontinuation of study treatment; “adverse events of interest” i.e., ventricular arrhythmias requiring treatment and positively adjudicated major cardiac ischemic events (including myocardial infarction, hospitalization for unstable angina, coronary revascularization). […] All analyses were performed with the use of SAS software, version 9.4 (SAS Institute).\nExcluding the discontinuations due to death, the study drug was stopped in 847 patients (20.6%) receiving omecamtiv mecarbil and 897 patients (21.9%) receiving placebo with 371 (9.0%) in the omecamtiv mecarbil group and 382 (9.3%) receiving placebo discontinuing due to an adverse event. Patients receiving omecamtiv mecarbil had no change in potassium or creatinine concentrations during the course of the trial compared to placebo. Patients receiving omecamtiv mecarbil had increased median concentrations of high sensitivity troponin-I from baseline of 0.004 ng/mL (lower limit of quantification, 0.010 ng/mL) compared to placebo at week 24. […] Ventricular arrhythmias were similar in patients receiving omecamtiv mecarbil compared to placebo (Table 3).\nContinuous variables were summarized as means±standard deviations (SD) or medians and first and third quartiles (Q1, Q3), as appropriate. Categorical variables were summarized as counts and percentages. […] The change from baseline on NT-proBNP analysis included all participants who underwent randomization. The difference column is the exponentiated change from baseline on the log scale using a mixed model containing the log baseline value, region, baseline eGFR, scheduled visit, treatment group and interaction of treatment with scheduled visit.\nTable 4 summarizes the adverse events reported in 1% or more of patients."}, "[2]": {"details": "treatment-emergent serious adverse event, preferred term, N = 4110"}},
  "note": "Entries after “also recorded” stand apart in the source; their conditions may differ.",
  "data": [
    {"smiles": "COC(=O)N1CCN(Cc2cccc(NC(=O)Nc3ccc(C)nc3)c2F)CC1", "note": "[omecamtiv mecarbil]", "values": [
      {"measurement": "Inhibition of MATE1", "setting": "MATE1", "value": "inhibitor"},
      {"measurement": "Inhibition of MATE 2-K", "setting": "MATE 2-K", "value": "inhibitor"},
      {"measurement": "Left ventricular systolic and diastolic volumes, natriuretic peptide concentrations and heart rate", "setting": "patients with HFrEF; oral therapy for 20 weeks, chronic HFrEF", "value": "reduced left ventricular systolic and diastolic volumes, plasma natriuretic peptide concentrations and heart rate; also recorded: decreased left ventricular systolic and diastolic volumes"},
      {"measurement": "Cardiac performance", "setting": "patients with HFrEF; short-term intravenous and longer-term oral therapy", "value": "improved cardiac performance"},
      {"measurement": "Acute kidney injury, %", "setting": "[1]; human, in vivo", "value": "(3.1) %"},
      {"measurement": "Acute myocardial infarction, %", "setting": "[1]; human, in vivo", "value": "(1.7) %"},
      {"measurement": "Adjudicated major cardiac ischemic events, no.", "setting": "[1]; human, in vivo", "value": 200, "unit": "no."},
      {"measurement": "Adjudicated major cardiac ischemic events, relative risk", "setting": "[1]; human, in vivo", "value": 1.06},
      {"measurement": "Angina pectoris, %", "setting": "[1]; human, in vivo", "value": "(1.0) %"},
      {"measurement": "Angina unstable, %", "setting": "[1]; human, in vivo", "value": "(1.5) %"},
      {"measurement": "Atrial fibrillation, %", "setting": "[1]; human, in vivo", "value": "(2.3) %"},
      {"measurement": "Cardiac arrest, %", "setting": "[1]; human, in vivo", "value": "(1.2) %"},
      {"measurement": "Cardiac failure acute, %", "setting": "[1]; human, in vivo", "value": "(5.2) %"},
      {"measurement": "Cardiac failure chronic, %", "setting": "[1]; human, in vivo", "value": "(3.8) %"},
      {"measurement": "Cardiac failure congestive, %", "setting": "[1]; human, in vivo", "value": "(3.6) %"},
      {"measurement": "Cardiac failure, %", "setting": "[1]; human, in vivo", "value": "(24.0) %"},
      {"measurement": "Cardiogenic shock, %", "setting": "[1]; human, in vivo", "value": "(1.8) %"},
      {"measurement": "Chronic kidney disease, %", "setting": "[1]; human, in vivo", "value": "(0.9) %"},
      {"measurement": "Chronic obstructive pulmonary disease, %", "setting": "[1]; human, in vivo", "value": "(1.5) %"},
      {"measurement": "Coronary revascularization (adjudicated), %", "setting": "[1]; human, in vivo", "value": "(2.8) %"},
      {"measurement": "Coronary revascularization (adjudicated), no.", "setting": "[1]; human, in vivo", "value": 115, "unit": "no."},
      {"measurement": "Drug discontinuation due to an adverse event, no.", "setting": "[1]; human, in vivo", "value": 371, "unit": "no."},
      {"measurement": "Drug discontinuation due to an adverse event, relative risk", "setting": "[1]; human, in vivo", "value": 0.97},
      {"measurement": "Hospitalized for unstable angina (adjudicated), %", "setting": "[1]; human, in vivo", "value": "(0.6) %"},
      {"measurement": "Hospitalized for unstable angina (adjudicated), no.", "setting": "[1]; human, in vivo", "value": 25, "unit": "no."},
      {"measurement": "Hypotension, %", "setting": "[1]; human, in vivo", "value": "(1.2) %"},
      {"measurement": "Myocardial infarction (adjudicated major cardiac ischemic event), no.", "setting": "[1]; human, in vivo", "value": 122, "unit": "no."},
      {"measurement": "Myocardial infarction, %", "setting": "[1]; human, in vivo", "value": "(0.9) %"},
      {"measurement": "Pneumonia, %", "setting": "[1]; human, in vivo", "value": "(4.2) %"},
      {"measurement": "Renal failure, %", "setting": "[1]; human, in vivo", "value": "(0.6) %"},
      {"measurement": "Renal impairment, %", "setting": "[1]; human, in vivo", "value": "(0.6) %"},
      {"measurement": "Respiratory tract infection, %", "setting": "[1]; human, in vivo", "value": "(0.4) %"},
      {"measurement": "Sepsis, %", "setting": "[1]; human, in vivo", "value": "(1.2) %"},
      {"measurement": "Septic shock, %", "setting": "[1]; human, in vivo", "value": "(0.9) %"},
      {"measurement": "Serious adverse events (subjects reporting treatment-emergent serious adverse events), %", "setting": "[1]; human, in vivo", "value": "(57.7) %"},
      {"measurement": "Serious adverse events (subjects reporting treatment-emergent serious adverse events), no.", "setting": "[1]; human, in vivo", "value": 2373, "unit": "no."},
      {"measurement": "Serious adverse events, relative risk", "setting": "[1]; human, in vivo", "value": 0.97},
      {"measurement": "Serious adverse ventricular arrhythmia requiring treatment, %", "setting": "[1]; human, in vivo", "value": "(2.9) %"},
      {"measurement": "Serious adverse ventricular arrhythmia requiring treatment, no.", "setting": "[1]; human, in vivo", "value": 119, "unit": "no."},
      {"measurement": "Serious adverse ventricular arrhythmia requiring treatment, relative risk", "setting": "[1]; human, in vivo", "value": 0.93},
      {"measurement": "Stroke, %", "setting": "[1]; human, in vivo", "value": "(1.8) %"},
      {"measurement": "Stroke, no.", "setting": "[1]; human, in vivo", "value": 76, "unit": "no."},
      {"measurement": "Stroke, relative risk", "setting": "[1]; human, in vivo", "value": 0.68},
      {"measurement": "Study drug stopped, % of patients", "setting": "[1]; human, in vivo", "value": 20.6, "unit": "%"},
      {"measurement": "Study drug stopped, no. of patients", "setting": "[1]; human, in vivo", "value": 847, "unit": "no."},
      {"measurement": "Syncope, %", "setting": "[1]; human, in vivo", "value": "(1.0) %"},
      {"measurement": "Torsade de pointes/QT prolongation (narrow SMQ), %", "setting": "[1]; human, in vivo", "value": "(4.3) %"},
      {"measurement": "Torsade de pointes/QT prolongation (narrow SMQ), no.", "setting": "[1]; human, in vivo", "value": 176, "unit": "no."},
      {"measurement": "Torsade de pointes/QT prolongation (narrow SMQ), relative risk", "setting": "[1]; human, in vivo", "value": 0.90},
      {"measurement": "Ventricular fibrillation, %", "setting": "[1]; human, in vivo", "value": "(0.7) %"},
      {"measurement": "Ventricular tachyarrhythmias (narrow SMQ), %", "setting": "[1]; human, in vivo", "value": "(7.1) %"},
      {"measurement": "Ventricular tachyarrhythmias (narrow SMQ), no.", "setting": "[1]; human, in vivo", "value": 290, "unit": "no."},
      {"measurement": "Ventricular tachyarrhythmias (narrow SMQ), relative risk", "setting": "[1]; human, in vivo", "value": 0.95},
      {"measurement": "Ventricular tachycardia, %", "setting": "[1]; human, in vivo", "value": "(2.6) %"},
      {"measurement": "lschaemic stroke, %", "setting": "[1]; human, in vivo", "value": "(0.9) %"},
      {"measurement": "Death, %", "setting": "[1]; [2]", "value": "(1.6) %"},
      {"measurement": "Sudden cardiac death, %", "setting": "[1]; [2]", "value": "(0.7) %"},
      {"measurement": "Sudden death, %", "setting": "[1]; [2]", "value": "(1.3) %"}
    ]}
  ]
}
